Twelve compounds from US10857196B2, “Bicyclic peptide ligands and uses thereof” (BicycleTx Limited, priority 2017, dated 2020) can be followed below.

The structures appear in SMILES notation. pKi: −log10 of the molar value. Numbered stars: 1 amine (or outer) side, 2 acyl side, 3 side chain; on linkers, the order of the positions; unused ones are H or OH. Bridge positions count the residues as written; N and C are the ends. Square brackets hold non-standard residues; d marks the D form. Peptide text beside a SMILES is read from it. X8 = O=C(C[*:1])NCCn1c(=O)n(CCNC(=O)C[*:2])c(=O)n(CCNC(=O)C[*:3])c1=O; X7 = O=S(=O)(CC[*:1])N1CCN(S(=O)(=O)CC[*:2])CCN(S(=O)(=O)CC[*:3])CC1; X6 = O=S(=O)(CC[*:1])c1cc(S(=O)(=O)CC[*:2])cc(S(=O)(=O)CC[*:3])c1; X1 = O=C(CC[*:1])N1CC23CN(C(=O)CC[*:2])CC2(C1)CN(C(=O)CC[*:3])C3; X9 = O=C(C[*:1])N1CCOCCN(C(=O)C[*:2])CCOCCN(C(=O)C[*:3])CCOCC1; X3 = O=C(C[*:1])N1CC23CN(C(=O)C[*:2])CC2(C1)CN(C(=O)C[*:3])C3; X2 = O=C(CC[*:1])N1CCN(C(=O)CC[*:2])CCN(C(=O)CC[*:3])CC1; X5 = O=C(C[*:1])N1CCN(C(=O)C[*:2])CCN(C(=O)C[*:3])CC1; X4 = O=C(C[*:1])NCCN(CCNC(=O)C[*:2])CCNC(=O)C[*:3]; 1Nal = N[C@@H](Cc1cccc2ccccc12)C(=O)O; Tle = CC(C)(C)[C@H](N)C(=O)O

The pKi is the Ki on a negative log10 scale, so that one unit is a factor of ten. Low values mean a high Ki, high ones a low Ki.

The first experiment addresses CAIX (Homo sapiens, UniProt Q16790). Description: CAIX competition binding assay (competition fluorescence polarization). The note with it: fluorescent ligand A-(CAECWIDGWVPC)-A-Sar6-K(Fl). The protocol: CAIX Competition Binding Assay Affinity of the peptides of the invention for human CAIX (Ki) was determined using a competition fluorescence polarization assay analogous to that described in Dubois et al. (2011) Radiotherapy and Oncology 99(3), 424-43 using A-(CAECWIDGWVPC)-A-Sar6-K(Fl) (SEQ ID NO: 5) as the fluorescent ligand.
A Ki value designated “A” denotes a Ki of ≤50 nM; a Ki value designated “B” denotes a K, of >50 nM and ≤100 nM; a Ki value designated “C” denotes a Ki of >100 nM and ≤1,000 nM; and a Ki value designated “D” denotes a Ki of >1,000 nM.
The compound `CC(C)[C@@H]1NC(=O)[C@H](Cc2c[nH]c3ccccc23)NC(=O)[C@@H]2CSCC(=O)NCCn3c(=O)n(c(=O)n(c3=O)CCNC(=O)CSC[C@H](NC(=O)[C@H](C)NC(=O)CN(C)C(=O)CN(C)C(=O)CN(C)C(=O)CN(C)C(=O)CN(C)C(=O)CN(C)C(=O)CN(C)C(=O)CN(C)C(=O)CN(C)C(=O)CN(C)C(=O)CCN)C(=O)N[C@@H]([C@@H](C)O)C(=O)N[C@@H](CCC(=O)O)C(=O)N2)CCNC(=O)CSC[C@@H](C(=O)O)NC(=O)[C@@H]2CCCN2C(=O)[C@H](C(C)C)NC(=O)[C@H](Cc2c[nH]c3ccccc23)NC(=O)CNC(=O)[C@H](CC(=O)O)NC1=O` [Compound I-19] gave a pKi of 7.00 to 7.30. The same measure, in the same setting: then `CC(C)[C@@H]1NC(=O)[C@H](Cc2c[nH]c3ccccc23)NC(=O)[C@@H]2CSCC(=O)N3CCN(CCN(CC3)C(=O)CSC[C@H](NC(=O)[C@H](C)NC(=O)CN(C)C(=O)CN(C)C(=O)CN(C)C(=O)CN(C)C(=O)CN(C)C(=O)CN(C)C(=O)CN(C)C(=O)CN(C)C(=O)CN(C)C(=O)CN(C)C(=O)CCN)C(=O)N[C@@H]([C@@H](C)O)C(=O)N[C@@H](CCC(=O)O)C(=O)N2)C(=O)CSC[C@@H](C(N)=O)NC(=O)[C@@H]2CCCN2C(=O)[C@H](C(C)C)NC(=O)[C@H](Cc2c[nH]c3ccccc23)NC(=O)CNC(=O)[C@H](CC(=O)O)NC1=O` [Compound I-21], with 6.00 to 7.00; and `CC(C)[C@@H]1NC(=O)[C@H](Cc2c[nH]c3ccccc23)NC(=O)[C@@H]2CSCCC(=O)N3CCN(CCN(CC3)C(=O)CCSC[C@H](NC(=O)[C@H](C)NC(=O)CN(C)C(=O)CN(C)C(=O)CN(C)C(=O)CN(C)C(=O)CN(C)C(=O)CN(C)C(=O)CN(C)C(=O)CN(C)C(=O)CN(C)C(=O)CN(C)C(=O)CCN)C(=O)N[C@@H]([C@@H](C)O)C(=O)N[C@@H](CCC(=O)O)C(=O)N2)C(=O)CCSC[C@@H](C(N)=O)NC(=O)[C@@H]2CCCN2C(=O)[C@H](C(C)C)NC(=O)[C@H](Cc2c[nH]c3ccccc23)NC(=O)CNC(=O)[C@H](CC(=O)O)NC1=O` [Compound I-22], with 6.00 to 7.00.

A further experiment deals with MT1-MMP hemopexin domain (Homo sapiens, UniProt P50281). Description: Direct binding fluorescence polarization (anisotropy) assay.
Conditions: not given
The protocol: Direct Binding Fluorescence Polarization or Anisotropy Assays are performed by titrating a constant concentration of fluorescent tracer (here, the fluoresceinated bicyclic peptide to be studied) with its binding partner (here, the MT1-MMP hemopexin domain). As the concentration of binding partner increases during the titration, the polarization signal changes in proportion to the fraction of bound and unbound material. This allows determination of […] (Kd) quantitatively. Assay data can be fit using standard ligand binding equations.
Typically, concentrations of the tracer are ideally well below the Kd of the tracer:titrant pair, and concentrations chosen are usually at ˜1 nM or less. The titrant (binding partner) concentration is varied from 0.1 nM up to typically 5 μM. The range is chosen such that the maximum change in fluorescent polarization can be observed. Buffers employed are phosphate buffered saline in the presence of 0.01% Tween. Experiments were run in black 384 well low-bind/low volume plates (Corning 3820), and the fluorescent polarization signal was measured using a BMG Pherastar FS plate reader. Fluorescent tracers referred to in the text are bicyclic peptides that have been fluoresceinated using 5,6-carboxyfluorescein. Fluoresceination may be performed on the N-terminal amino group of the peptide, which is separated from the bicycle core sequence by a sarcosine spacer (usually Sar5). This can be done during Fmoc solid phase synthesis or post-synthetically (after cyclization with the molecular scaffold reagent and purification) if the N-terminal amino group is unique to the peptide. Fluoresceination can also be performed on the C-terminus, usually on a Lysine introduced as the first C-terminal residue, which is then separated from the bicycle core sequence by a sarcosine spacer (usually Sar6). Thus, N-terminal tracers can have a molecular format described as Fluo-Gly-Sar5-A(BicycleCoreSequence), and (BicycleCoreSequence)-A-Sar6-K(Fluo) for a C-terminally fluoresceinated construct.
Fluorescent tracers used in the Examples are A-(17-69)-A-Sar6-K(Fluo), A-(17-69-07)-A-Sar6-K(Fluo), and A-(17-69-12)-A-Sar6-K(Fluo). Due to the acidic nature of the 17-69 fluorescent peptides, they were typically prepared as concentrated DMSO stocks, from which dilution were prepared in 100 mM Tris pH 8 buffer.
Results from the direct binding fluorescence polarization (anisotropy) assays is depicted in Table 3, below. A K, value designated “A” denotes a Ki of ≤50 nM; a Ki value designated “B” denotes a Ki of >50 nM and ≤100 nM; a Ki value designated “C” denotes a Ki of >100 nM and ≤1,000 nM; and a Ki value designated “D” denotes a Ki of >1,000 nM.
In general terms: In fluorescence polarisation assays a small probe gives low polarisation when free and higher when bound to something large.
Consider `C[C@H](N)C(=O)N[C@H]1CSCC(=O)NCCn2c(=O)n3c(=O)n(c2=O)CCNC(=O)CSC[C@H](NC(=O)[C@@H](C)NC(=O)[C@H](Cc2cccc4ccccc24)NC(=O)[C@H](CCC(=O)O)NC(=O)[C@H](CC(N)=O)NC(=O)[C@@H](C)NC1=O)C(=O)N[C@@H](CCC(=O)O)C(=O)N[C@@H](CC(=O)O)C(=O)N[C@@H](Cc1ccccc1)C(=O)N[C@@H](Cc1ccc(O)cc1)C(=O)N[C@@H](CC(=O)O)C(=O)N[C@@H](C(C)(C)C)C(=O)N[C@H](C(N)=O)CSCC(=O)NCC3` [Compound I-52] (H-AC[dA]NE[1Nal][dA]CEDFYD[Tle]C-NH2; linker 2-8-15 via X8), for which the pKi is 6.00 to 7.00. Same read-out and setting: to `C[C@H](N)C(=O)N[C@H]1CSCC(=O)N2CCN3CCN(CC2)C(=O)CSC[C@H](NC(=O)[C@@H](C)NC(=O)[C@H](Cc2cccc4ccccc24)NC(=O)[C@H](CCC(=O)O)NC(=O)[C@H](CC(N)=O)NC(=O)[C@@H](C)NC1=O)C(=O)N[C@@H](CCC(=O)O)C(=O)N[C@@H](CC(=O)O)C(=O)N[C@@H](Cc1ccccc1)C(=O)N[C@@H](Cc1ccc(O)cc1)C(=O)N[C@@H](CC(=O)O)C(=O)N[C@@H](C(C)(C)C)C(=O)N[C@H](C(N)=O)CSCC3=O` [Compound I-54] (H-AC[dA]NE[1Nal][dA]CEDFYD[Tle]C-NH2; linker 2-8-15 via X5) belongs at least 7.30; to `C[C@H](N)C(=O)N[C@H]1CSCCC(=O)N2CCN3CCN(CC2)C(=O)CCSC[C@H](NC(=O)[C@@H](C)NC(=O)[C@H](Cc2cccc4ccccc24)NC(=O)[C@H](CCC(=O)O)NC(=O)[C@H](CC(N)=O)NC(=O)[C@@H](C)NC1=O)C(=O)N[C@@H](CCC(=O)O)C(=O)N[C@@H](CC(=O)O)C(=O)N[C@@H](Cc1ccccc1)C(=O)N[C@@H](Cc1ccc(O)cc1)C(=O)N[C@@H](CC(=O)O)C(=O)N[C@@H](C(C)(C)C)C(=O)N[C@H](C(N)=O)CSCCC3=O` [Compound I-55] (H-AC[dA]NE[1Nal][dA]CEDFYD[Tle]C-NH2; linker 2-8-15 via X2), 7.00 to 7.30; to `C[C@H](N)C(=O)N[C@H]1CSCCC(=O)N2CC34CN5CC3(C2)CN(C4)C(=O)CCSC[C@H](NC(=O)[C@@H](C)NC(=O)[C@H](Cc2cccc3ccccc23)NC(=O)[C@H](CCC(=O)O)NC(=O)[C@H](CC(N)=O)NC(=O)[C@@H](C)NC1=O)C(=O)N[C@@H](CCC(=O)O)C(=O)N[C@@H](CC(=O)O)C(=O)N[C@@H](Cc1ccccc1)C(=O)N[C@@H](Cc1ccc(O)cc1)C(=O)N[C@@H](CC(=O)O)C(=O)N[C@@H](C(C)(C)C)C(=O)N[C@H](C(N)=O)CSCCC5=O` [Compound I-56] (H-AC[dA]NE[1Nal][dA]CEDFYD[Tle]C-NH2; linker 2-8-15 via X1), 6.00 to 7.00. `C[C@H](N)C(=O)N[C@H]1CSCC(=O)N2CC34CN5CC3(C2)CN(C4)C(=O)CSC[C@H](NC(=O)[C@@H](C)NC(=O)[C@H](Cc2cccc3ccccc23)NC(=O)[C@H](CCC(=O)O)NC(=O)[C@H](CC(N)=O)NC(=O)[C@@H](C)NC1=O)C(=O)N[C@@H](CCC(=O)O)C(=O)N[C@@H](CC(=O)O)C(=O)N[C@@H](Cc1ccccc1)C(=O)N[C@@H](Cc1ccc(O)cc1)C(=O)N[C@@H](CC(=O)O)C(=O)N[C@@H](C(C)(C)C)C(=O)N[C@H](C(N)=O)CSCC5=O` [Compound I-57] (H-AC[dA]NE[1Nal][dA]CEDFYD[Tle]C-NH2; linker 2-8-15 via X3) gave a pKi of 6.00 to 7.00.

For the compound `C[C@H](N)C(=O)N[C@H]1CSCC(=O)N2CCOCCN3CCOCCN(CCOCC2)C(=O)CSC[C@H](NC(=O)[C@@H](C)NC(=O)[C@H](Cc2cccc4ccccc24)NC(=O)[C@H](CCC(=O)O)NC(=O)[C@H](CC(N)=O)NC(=O)[C@@H](C)NC1=O)C(=O)N[C@@H](CCC(=O)O)C(=O)N[C@@H](CC(=O)O)C(=O)N[C@@H](Cc1ccccc1)C(=O)N[C@@H](Cc1ccc(O)cc1)C(=O)N[C@@H](CC(=O)O)C(=O)N[C@@H](C(C)(C)C)C(=O)N[C@H](C(N)=O)CSCC3=O` [Compound I-58] (H-AC[dA]NE[1Nal][dA]CEDFYD[Tle]C-NH2; linker 2-8-15 via X9), the pKi is 7.00 to 7.30. Compound `C[C@H](N)C(=O)N[C@H]1CSCCS(=O)(=O)N2CCN3CCN(CC2)S(=O)(=O)CCSC[C@@H](NC(=O)[C@@H](C)NC(=O)[C@H](Cc2cccc4ccccc24)NC(=O)[C@H](CCC(=O)O)NC(=O)[C@H](CC(N)=O)NC(=O)[C@@H](C)NC1=O)C(=O)N[C@@H](CCC(=O)O)C(=O)N[C@@H](CC(=O)O)C(=O)N[C@@H](Cc1ccccc1)C(=O)N[C@@H](Cc1ccc(O)cc1)C(=O)N[C@@H](CC(=O)O)C(=O)N[C@@H](C(C)(C)C)C(=O)N[C@H](C(N)=O)CSCCS3(=O)=O` [Compound I-59] (H-AC[dA]NE[1Nal][dA][dC]EDFYD[Tle]C-NH2; linker 2-8-15 via X7) had a pKi of under 6.00. Still for that read-out and setting: then `C[C@H](N)C(=O)N[C@H]1CSCC(=O)NCCN2CCNC(=O)CSC[C@@H](C(=O)O)NC(=O)[C@H](C(C)(C)C)NC(=O)[C@H](CC(=O)O)NC(=O)[C@H](Cc3ccc(O)cc3)NC(=O)[C@H](Cc3ccccc3)NC(=O)[C@H](CC(=O)O)NC(=O)[C@H](CCC(=O)O)NC(=O)[C@H](CSCC(=O)NCC2)NC(=O)[C@@H](C)NC(=O)[C@H](Cc2cccc3ccccc23)NC(=O)[C@H](CCC(=O)O)NC(=O)[C@H](CC(N)=O)NC(=O)[C@@H](C)NC1=O` [Compound I-60] (H-AC[dA]NE[1Nal][dA]CEDFYD[Tle]C-OH; linker 2-8-15 via X4), with 6.00 to 7.00; and `C[C@H](N)C(=O)N[C@H]1CSCCS(=O)(=O)c2cc3cc(c2)S(=O)(=O)CCSC[C@@H](NC(=O)[C@@H](C)NC(=O)[C@H](Cc2cccc4ccccc24)NC(=O)[C@H](CCC(=O)O)NC(=O)[C@H](CC(N)=O)NC(=O)[C@@H](C)NC1=O)C(=O)N[C@@H](CCC(=O)O)C(=O)N[C@@H](CC(=O)O)C(=O)N[C@@H](Cc1ccccc1)C(=O)N[C@@H](Cc1ccc(O)cc1)C(=O)N[C@@H](CC(=O)O)C(=O)N[C@@H](C(C)(C)C)C(=O)N[C@H](C(N)=O)CSCCS3(=O)=O` [Compound I-61] (H-AC[dA]NE[1Nal][dA][dC]EDFYD[Tle]C-NH2; linker 2-8-15 via X6), with at least 7.30.
